Data from US20160038468A1 (priority 2013, published 2016).
Converted amounts (≈) assume the structure as drawn. Read-outs that look alike come from different tables or passages of the source.

Experiments:
Type in all cases: cell-based
[1] = system: Anaerococcus tetradius; assay: Agar dilution MIC (CLSI), Anaerococcus tetradius vaginal isolates; conditions: for MIC: read-out: Minimal Inhibitory Concentration (MIC); for Number of strains with indicated MIC: 21 samples
[2] = system: Finegoldia magna; assay: Agar dilution MIC (CLSI), Finegoldia magna vaginal isolates; conditions: for MIC: read-out: Minimal Inhibitory Concentration (MIC); for Number of strains with indicated MIC: 20 samples
[3] = system: Megasphaera-like bacteria; assay: Agar dilution MIC (CLSI), Megasphaera-like bacteria vaginal isolates; conditions: for MIC: read-out: Minimal Inhibitory Concentration (MIC); for Number of strains with indicated MIC: 25 samples
[4] = Anaerococcus tetradius, # tested 21

Molecule `CCC[C@@H]1C[C@@H](C(=O)N[C@@H]([C@H]2O[C@H](SC)[C@H](O)[C@@H](O)[C@H]2O)[C@H](C)Cl)N(C)C1` [Clindamycin] has an MIC ([1]; Anaerococcus tetradius, isolate 601369V 12) of 2 µg/mL (≈ 4.71 µM), an MIC ([1]; Anaerococcus tetradius, isolate 601401V T) of 8 µg/mL (≈ 18.8 µM) and an MIC ([1]; Anaerococcus tetradius, isolate 601429V 15) of 2 µg/mL (≈ 4.71 µM). For the same molecule, the MIC ([1]; Anaerococcus tetradius, isolate 601450V 22) was 1 µg/mL (≈ 2.35 µM), the MIC ([1]; Anaerococcus tetradius) was > 128 µg/mL and the MIC50 [1, 4] was 2 µg/mL (≈ 4.71 µM). The MIC90 [1, 4] was > 128 µg/mL, the “Number of strains with indicated MIC” value ([1]; MIC 0.03 μg/ml) was 1 and the “Number of strains with indicated MIC” value ([1]; MIC 8 μg/ml) was 1. For the same molecule, the “Number of strains with indicated MIC” value ([1]; MIC >[…]) was 3, the “Number of strains with indicated MIC” value ([1]; MIC […]) was 1 and the “Minimal Inhibitory Concentration (MIC)” value ([1]; isolate 601379V 25) was >128 µg/mL. The “Minimal Inhibitory Concentration (MIC)” value ([1]; isolate 602375V 22) was >128 µg/mL, the MIC ([2]; Finegoldia magna, isolate 301303V D) was 8 µg/mL (≈ 18.8 µM) and the MIC ([2]; Finegoldia magna, isolate 601205V 39) was 8 µg/mL (≈ 18.8 µM). It also gave an MIC ([2]; Finegoldia magna, isolate 601275V c) of 128 µg/mL (≈ 301 µM), an MIC ([2]; Finegoldia magna, isolate 601276V 23) of 0.5 µg/mL (≈ 1.18 µM) and an MIC ([2]; Finegoldia magna, isolate 601283V 14) of 4 µg/mL (≈ 9.41 µM). The MIC ([2]; Finegoldia magna, isolate 601295V 25) was 0.25 µg/mL (≈ 0.588 µM), the MIC ([2]; Finegoldia magna, isolate 601298V 30) was 128 µg/mL (≈ 301 µM) and the MIC ([2]; Finegoldia magna, isolate 601308V 24) was 0.25 µg/mL (≈ 0.588 µM). The MIC ([2]; Finegoldia magna, isolate 601315V 17) was 4 µg/mL (≈ 9.41 µM), the MIC ([2]; Finegoldia magna, isolate 601315V 17A) was 4 µg/mL (≈ 9.41 µM) and the MIC ([2]; Finegoldia magna, isolate 601320V 24) was 0.5 µg/mL (≈ 1.18 µM). For the same molecule, the MIC ([2]; Finegoldia magna, isolate 601323V K) was 0.25 µg/mL (≈ 0.588 µM), the MIC ([2]; Finegoldia magna, isolate 601330V c) was 0.25 µg/mL (≈ 0.588 µM) and the MIC ([2]; Finegoldia magna, isolate 601335V c1) was 0.5 µg/mL (≈ 1.18 µM). The MIC ([2]; Finegoldia magna, isolate 601340V 27) was 0.25 µg/mL (≈ 0.588 µM), the MIC ([2]; Finegoldia magna, isolate 601359V c) was 0.25 µg/mL (≈ 0.588 µM) and the MIC ([2]; Finegoldia magna, isolate 601363V 6) was 0.03 µg/mL (≈ 0.0706 µM). The MIC ([2]; Finegoldia magna, isolate 601367V c) was 0.5 µg/mL (≈ 1.18 µM), the MIC ([2]; Finegoldia magna) was > 128 µg/mL and the MIC50 ([2]; Finegoldia magna, # tested 20) was 0.5 µg/mL (≈ 1.18 µM). The MIC90 ([2]; Finegoldia magna, # tested 20) was 128 µg/mL (≈ 301 µM), the “Number of strains with indicated MIC” value ([2]; MIC 0.03 μg/ml) was 1 and the “Number of strains with indicated MIC” value ([2]; MIC 8 μg/ml) was 2. The “Number of strains with indicated MIC” value ([2]; MIC >[…]) was 2, the “Minimal Inhibitory Concentration (MIC)” value ([2]; isolate 601214V F) was >128 µg/mL and the MIC ([3]; 427510 h, isolate 427507 H) was 0.03 µg/mL (≈ 0.0706 µM). The MIC50 ([3]; # tested 25) was 0.03 µg/mL (≈ 0.0706 µM), the MIC90 ([3]; # tested 25) was 0.03 µg/mL (≈ 0.0706 µM) and the “MIC Range” value ([3]; # tested 25) was 0.03 to 0.125 µg/mL. For the same molecule, the “Number of strains with indicated MIC” value ([3]; MIC 0.03 μg/ml) was 24, the “Number of strains with indicated MIC” value ([3]; MIC […]) was 1 and the MIC ([3]; isolate 426749 T) was 0.03 µg/mL (≈ 0.0706 µM). For the same molecule, the MIC ([3]; isolate 426766 Q) was 0.03 µg/mL (≈ 0.0706 µM), the MIC ([3]; isolate 426788 8a) was 0.03 µg/mL (≈ 0.0706 µM) and the MIC ([3]; isolate 426788 C) was 0.03 µg/mL (≈ 0.0706 µM). The MIC ([3]; isolate 427470 10) was 0.03 µg/mL (≈ 0.0706 µM), the MIC ([3]; isolate 427490 2u) was 0.03 µg/mL (≈ 0.0706 µM) and the MIC ([3]; isolate 427509 A) was 0.125 µg/mL (≈ 0.294 µM). For the same molecule, the MIC ([3]; isolate 427522 8) was 0.03 µg/mL (≈ 0.0706 µM), the MIC ([3]; isolate 600770 O) was 0.03 µg/mL (≈ 0.0706 µM) and the MIC ([3]; isolate 600790 N) was 0.03 µg/mL (≈ 0.0706 µM). For the same molecule, the MIC ([3]; isolate 600796 V) was 0.03 µg/mL (≈ 0.0706 µM), the MIC ([3]; isolate 600831 9) was 0.03 µg/mL (≈ 0.0706 µM) and the MIC ([3]; isolate 600837 18) was 0.03 µg/mL (≈ 0.0706 µM). It also gave an MIC ([3]; isolate 600861 P) of 0.03 µg/mL (≈ 0.0706 µM), an MIC ([3]; isolate 602236 E3) of 0.03 µg/mL (≈ 0.0706 µM) and an MIC ([3]; isolate 602241 D) of 0.03 µg/mL (≈ 0.0706 µM). It also gave an MIC ([3]; isolate 602241 F) of 0.03 µg/mL (≈ 0.0706 µM), an MIC ([3]; isolate 602270 A) of 0.03 µg/mL (≈ 0.0706 µM) and an MIC ([3]; isolate 602282 I) of 0.03 µg/mL (≈ 0.0706 µM). For the same molecule, the MIC ([3]; isolate 602288 16) was 0.03 µg/mL (≈ 0.0706 µM), the MIC ([3]; isolate 602302 22) was 0.03 µg/mL (≈ 0.0706 µM) and the MIC ([3]; isolate 602305 I) was 0.03 µg/mL (≈ 0.0706 µM). The MIC ([3]; isolate 602324 8) was 0.03 µg/mL (≈ 0.0706 µM) and the MIC ([3]; isolate 602672 12A) was 0.03 µg/mL (≈ 0.0706 µM).
